Test results taken from patent US11661431B2, “Thienopyrrole compounds” (Gilead Sciences, Inc., priority 2021, dated 2023).

Assays:
TLR7 = TLR7 (Homo sapiens (Human), UniProt Q9NYK1); assay: TLR7 human peripheral blood mononuclear cell (PBMC) cell-based assay (GS-986 as agonist; IL-6 and IFNα readout); settings: human PBMCs, TLR7 agonist GS-986 at 400 nM, 6 hours, antagonist potency; read-out: TLR-7 EC50
Procedure: Human peripheral blood mononuclear cells (PBMCs) consist of lymphocytes, monocytes and dendritic cells that express TLR7, TLR8 and TLR9. These cells respond to TLR7, TLR8 and TLR9 ligand stimulation and produce cytokines and chemokines in vitro and in vivo. Human PBMCs are therefore suitable to be used in a cell-based assay to assess the in vitro potency of a TLR 7, 8, and/or 9 antagonist.
After counting, the cell density was adjusted to 2 million cells/ml and incubated for 1 hour at 37° C., 5% CO2 for recovery. Following the recovery, the cells were plated by adding 50 μl per well (100,000 cells) to 384-well cell culture plates (Greiner) containing 250 nl of test antagonists in 100% DMSO per well, in a 10 points dose response in quadruplicates. PBMCs were incubated in the presence of test antagonists for one hour at 37° C., 5% CO2 before being stimulated with a TLR7 or TLR9agonist. […] PBMCs were incubated in the presence of the test antagonist and the TLR7 (or TLR9) agonist for an additional 6 hours at 37° C., 5% CO2. At the end of the incubation, the cell culture plates were centrifuged at 500 g for 5 min, and the cell culture supernatant was collected. The level of cytokines (IL-6 and IFNα) in the supernatant was measured by electrochemiluminescence immunoassays (Mesoscale Discovery) following manufacturer's recommended protocols.

TLR8 = TLR8 (Homo sapiens (Human), UniProt Q9NR97); assay: TLR8 human peripheral blood mononuclear cell (PBMC) cell-based assay (Compound A as agonist; TNFα and IL12p40 readout); settings: human PBMCs, TLR8 agonist Compound A at 800 nM, 6 hours, antagonist potency; read-out: TLR-8 EC50
Procedure: After counting, the cell density was adjusted to 2 million cells/ml and incubated for 1 hour at 37° C., 5% CO2 for recovery. Following the recovery, the cells were plated by adding 50 μl per well (100,000 cells) to 384-well cell culture plates (Greiner) containing 250 nl of test antagonists in 100% DMSO per well, in a 10 points dose response in quadruplicates. PBMCs were incubated in the presence of antagonists for one hour at 37° C., 5% CO2 before being stimulated with TLR8 agonist. […] PBMCs were incubated in the presence of antagonist and the TLR8 agonist for an additional 6 hours at 37° C., 5% CO2. At the end of the incubation, the cell culture plates were centrifuged at 500 g for 5 min, and the cell culture supernatant was collected. The level of cytokines (TNFα and IL12p40) in the supernatant was measured by electrochemiluminescence immunoassays (Mesoscale Discovery) following manufacturer's recommended protocols.

Sequence of TLR8 (Q9NR97 27-1041): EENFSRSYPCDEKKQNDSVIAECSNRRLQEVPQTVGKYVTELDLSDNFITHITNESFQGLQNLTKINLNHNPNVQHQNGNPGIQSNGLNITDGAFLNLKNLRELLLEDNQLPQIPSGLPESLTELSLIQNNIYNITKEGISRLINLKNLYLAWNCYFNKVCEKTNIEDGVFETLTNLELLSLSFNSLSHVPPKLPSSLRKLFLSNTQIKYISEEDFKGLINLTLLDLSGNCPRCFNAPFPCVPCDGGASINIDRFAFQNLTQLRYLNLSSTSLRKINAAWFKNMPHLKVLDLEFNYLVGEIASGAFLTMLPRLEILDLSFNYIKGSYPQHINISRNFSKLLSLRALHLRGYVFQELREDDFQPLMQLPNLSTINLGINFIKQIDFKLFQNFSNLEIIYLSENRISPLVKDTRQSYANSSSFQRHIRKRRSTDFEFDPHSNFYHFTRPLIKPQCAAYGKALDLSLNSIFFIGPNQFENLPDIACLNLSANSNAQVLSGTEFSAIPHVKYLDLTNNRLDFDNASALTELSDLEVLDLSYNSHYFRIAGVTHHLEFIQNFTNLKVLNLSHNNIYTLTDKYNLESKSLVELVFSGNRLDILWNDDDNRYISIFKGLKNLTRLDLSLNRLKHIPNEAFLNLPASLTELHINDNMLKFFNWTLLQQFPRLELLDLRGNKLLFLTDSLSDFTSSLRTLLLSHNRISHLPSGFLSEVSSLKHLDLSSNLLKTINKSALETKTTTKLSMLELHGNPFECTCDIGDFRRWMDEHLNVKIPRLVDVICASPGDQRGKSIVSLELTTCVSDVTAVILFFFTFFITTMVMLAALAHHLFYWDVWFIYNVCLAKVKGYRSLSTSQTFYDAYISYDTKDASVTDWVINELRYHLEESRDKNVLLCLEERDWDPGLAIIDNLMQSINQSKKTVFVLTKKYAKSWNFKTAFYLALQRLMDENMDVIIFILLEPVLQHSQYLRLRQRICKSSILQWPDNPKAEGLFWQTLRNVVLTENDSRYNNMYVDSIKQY
Sequence of TLR7 (Q9NYK1 27-1049): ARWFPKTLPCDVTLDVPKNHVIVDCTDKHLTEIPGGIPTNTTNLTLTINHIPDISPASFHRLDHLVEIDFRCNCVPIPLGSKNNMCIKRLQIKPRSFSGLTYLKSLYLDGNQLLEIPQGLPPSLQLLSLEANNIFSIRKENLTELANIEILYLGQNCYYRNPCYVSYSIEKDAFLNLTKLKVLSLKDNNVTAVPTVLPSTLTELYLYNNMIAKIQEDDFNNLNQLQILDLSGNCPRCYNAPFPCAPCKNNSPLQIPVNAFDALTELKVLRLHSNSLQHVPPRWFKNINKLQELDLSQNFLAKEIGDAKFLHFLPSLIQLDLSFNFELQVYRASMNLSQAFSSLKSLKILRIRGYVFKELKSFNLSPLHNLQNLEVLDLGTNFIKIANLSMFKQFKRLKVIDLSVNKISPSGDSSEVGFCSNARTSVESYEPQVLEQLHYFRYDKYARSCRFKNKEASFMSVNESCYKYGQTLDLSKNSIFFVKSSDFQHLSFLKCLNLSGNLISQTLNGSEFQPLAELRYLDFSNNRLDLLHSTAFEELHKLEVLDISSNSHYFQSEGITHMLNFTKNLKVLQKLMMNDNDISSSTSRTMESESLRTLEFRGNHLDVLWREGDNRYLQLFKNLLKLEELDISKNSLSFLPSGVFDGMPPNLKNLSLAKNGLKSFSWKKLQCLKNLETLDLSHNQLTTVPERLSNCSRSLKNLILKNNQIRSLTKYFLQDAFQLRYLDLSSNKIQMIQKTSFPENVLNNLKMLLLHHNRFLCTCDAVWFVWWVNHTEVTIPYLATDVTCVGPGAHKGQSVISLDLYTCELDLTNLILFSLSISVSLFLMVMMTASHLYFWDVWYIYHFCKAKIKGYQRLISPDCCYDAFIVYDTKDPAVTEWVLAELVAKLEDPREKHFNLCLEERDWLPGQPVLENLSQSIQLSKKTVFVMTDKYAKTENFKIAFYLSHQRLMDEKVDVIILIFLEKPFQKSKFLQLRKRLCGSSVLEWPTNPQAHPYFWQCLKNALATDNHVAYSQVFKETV

With `Cc1c(-c2[nH]c3sc(C45CCN(CC(N)=O)CC4C5)c(C)c3c2C(C)C)cn2ncnc2c1C` (single isomer, unassigned) [Example 103, 2-[6-[5-(7,8-dimethyl-[1,2,4]triazolo[1,5-a]pyridin-6-yl)-4-isopropyl-3-methyl-6H-thieno[2,3-b]pyrrol-2-yl]-3-azabicyclo[4.1.0]heptan-3-yl]acetamide] the EC50 (TLR7) was 0.91 nM and the EC50 (TLR8) was 20.4 nM.
Work on `Cc1c([C@H]2C[C@H]3CC[C@@H]2CN3CC(N)=O)sc2[nH]c(-c3cc(C)c4ncnn4c3)c(C(C)C)c12` (single isomer, unassigned) [Example 190] yielded an EC50 (TLR7) of 3.52 nM and an EC50 (TLR8) of 13.8 nM.
`Cc1c([C@@H]2C[C@H]3CC[C@@H]2CN3CC(N)=O)sc2[nH]c(-c3cc(C)c4ncnn4c3)c(C(C)C)c12` (single isomer, unassigned) [Example 191] was tested, and the EC50 (TLR7) was < 0.05 nM and the EC50 (TLR8) was 8.77 nM.
Work on `Cc1c(-c2[nH]c3sc([C@H]4C[C@@H]5CC[C@H]4CN5CC(=O)N(C)C)c(C)c3c2C(C)C)cn2ncnc2c1C` (single isomer, unassigned) [Example 212] yielded an EC50 (TLR7) of 0.45 nM and an EC50 (TLR8) of 6.78 nM.
Work on `Cc1c(-c2[nH]c3sc([C@@H]4C[C@@H]5CC[C@H]4CN5CC(=O)N(C)C)c(C)c3c2C(C)C)cn2ncnc2c1C` (single isomer, unassigned) [Example 213] yielded an EC50 (TLR7) of 4.05 nM and an EC50 (TLR8) of 3.64 nM.
`Cc1c(-c2[nH]c3sc([C@H]4C[C@@H]5CC[C@H]4CN5CCS(C)(=O)=O)c(C)c3c2C(C)C)cn2ncnc2c1C` (single isomer, unassigned) [Example 214] showed an EC50 (TLR7) of 4.47 nM and an EC50 (TLR8) of 3.4 nM.
With `Cc1c(-c2[nH]c3sc([C@H]4C[C@@H]5CC[C@H]4CN5Cc4cn(C)nn4)c(C)c3c2C(C)C)cn2ncnc2c1C` (single isomer, unassigned) [Example 215] the EC50 (TLR7) was < 0.05 nM and the EC50 (TLR8) was 0.78 nM.
`Cc1c(-c2[nH]c3sc([C@@H]4C[C@@H]5CC[C@H]4CN5Cc4cn(C)nn4)c(C)c3c2C(C)C)cn2ncnc2c1C` (single isomer, unassigned) [Example 216] showed an EC50 (TLR7) of 2.74 nM and an EC50 (TLR8) of 5.26 nM.
Compound `Cc1c(-c2[nH]c3sc([C@@H]4C[C@@H]5CC[C@H]4CN5CCS(C)(=O)=O)c(C)c3c2C(C)C)cn2ncnc2c1C` (single isomer, unassigned) [Example 233] has an EC50 (TLR7) of 0.16 nM and an EC50 (TLR8) of 0.79 nM.
Work on `Cc1c(-c2[nH]c3sc(C4CC(C(=O)N5CCNCC5)C4)c(C)c3c2C(C)C)cn2ncnc2c1C` (single isomer, unassigned) [Example 238, (3-(5-(7,8-dimethyl-[1,2,4]triazolo[1,5-a]pyridin-6-yl)-4-isopropyl-3-methyl-6H-thieno[2,3-b]pyrrol-2-yl)cyclobutyl)(piperazin-1-yl)methanone] yielded an EC50 (TLR7) of 0.39 nM and an EC50 (TLR8) of 1.44 nM.
For `Cc1c(-c2[nH]c3sc(C4CC(C(=O)N5CCNCC5)C4)c(C)c3c2C(C)C)cn2ncnc2c1C` (single isomer, unassigned) [Example 239, (3-(5-(7,8-dimethyl-[1,2,4]triazolo[1,5-a]pyridin-6-yl)-4-isopropyl-3-methyl-6H-thieno[2,3-b]pyrrol-2-yl)cyclobutyl)(piperazin-1-yl)methanone], the EC50 (TLR7) was < 0.05 nM and the EC50 (TLR8) was 1.5 nM.
Work on `Cc1c(-c2[nH]c3sc(C4CC(c5nnc([C@H]6COCCN6)o5)C4)c(C)c3c2C(C)C)cn2ncnc2c1C` (single isomer, unassigned) [Example 240] yielded an EC50 (TLR7) of 4.86 nM and an EC50 (TLR8) of 48.4 nM.
In the case of `Cc1c(-c2[nH]c3sc(C4CC(c5nnc([C@H]6COCCN6)o5)C4)c(C)c3c2C(C)C)cn2ncnc2c1C` (single isomer, unassigned) [Example 241], the EC50 (TLR7) is reported as 3.51 nM and the EC50 (TLR8) is reported as 30.7 nM.
`Cc1c(-c2[nH]c3sc([C@H]4C[C@H](c5nnc([C@@H]6COCCN6)o5)C4)c(C)c3c2C(C)C)cn2ncnc2c1C` (single isomer, unassigned) [Example 242] showed an EC50 (TLR7) of 2.9 nM and an EC50 (TLR8) of 37.3 nM.
For `Cc1c(-c2[nH]c3sc([C@H]4C[C@@H](c5nnc([C@@H]6COCCN6)o5)C4)c(C)c3c2C(C)C)cn2ncnc2c1C` (single isomer, unassigned) [Example 243], the EC50 (TLR7) was 1.25 nM and the EC50 (TLR8) was 21.4 nM.
`Cc1c(-c2[nH]c3sc(C4CC(n5cc(C6COCCN6)nn5)C4)c(C)c3c2C(C)C)cn2ncnc2c1C` (single isomer, unassigned) [Example 244, 3-(1-(3-(5-(7,8-dimethyl-[1,2,4]triazolo[1,5-a]pyridin-6-yl)-4-isopropyl-3-methyl-6H-thieno[2,3-b]pyrrol-2-yl)cyclobutyl)-1H-1,2,3-triazol-4-yl)morpholine] showed an EC50 (TLR7) of 0.14 nM and an EC50 (TLR8) of 9.43 nM.
For `Cc1c(-c2[nH]c3sc(C4CC(n5cc(C6COCCN6)nn5)C4)c(C)c3c2C(C)C)cn2ncnc2c1C` (single isomer, unassigned) [Example 245, 3-(1-(3-(5-(7,8-dimethyl-[1,2,4]triazolo[1,5-a]pyridin-6-yl)-4-isopropyl-3-methyl-6H-thieno[2,3-b]pyrrol-2-yl)cyclobutyl)-1H-1,2,3-triazol-4-yl)morpholine], the EC50 (TLR7) was 0.17 nM and the EC50 (TLR8) was 3.33 nM.
`Cc1c(C2CCCN(CC(N)=O)CC2)sc2[nH]c(-c3cc(C)c4ncnn4c3)c(C(C)C)c12` (single isomer, unassigned) [Example 262, 2-(4-(4-isopropyl-3-methyl-5-(8-methyl-[1,2,4]triazolo[1,5-a]pyridin-6-yl)-6H-thieno[2,3-b]pyrrol-2-yl)azepan-1-yl)acetamide] was tested, and the EC50 (TLR7) was < 0.05 nM and the EC50 (TLR8) was 4.54 nM.
`Cc1c(C2CCCN(CC(N)=O)CC2)sc2[nH]c(-c3cc(C)c4ncnn4c3)c(C(C)C)c12` (single isomer, unassigned) [Example 263, 2-(4-(4-isopropyl-3-methyl-5-(8-methyl-[1,2,4]triazolo[1,5-a]pyridin-6-yl)-6H-thieno[2,3-b]pyrrol-2-yl)azepan-1-yl)acetamide] gave an EC50 (TLR7) of 1.17 nM and an EC50 (TLR8) of 18.6 nM.
`Cc1c(-c2[nH]c3sc(C4CCN(C5CCNC5=O)CC4)c(C)c3c2C(C)C)cn2ncnc2c1C` (single isomer, unassigned) [Example 290, 3-[4-[5-(7,8-dimethyl-[1,2,4]triazolo[1,5-a]pyridin-6-yl)-4-isopropyl-3-methyl-6H-thieno[2,3-b]pyrrol-2-yl]-1-piperidyl]pyrrolidin-2-one] was tested, and the EC50 (TLR7) was 0.65 nM and the EC50 (TLR8) was 19.3 nM.
Compound `Cc1c(-c2[nH]c3sc(C4CCN(C5CCNC5=O)CC4)c(C)c3c2C(C)C)cn2ncnc2c1C` (single isomer, unassigned) [Example 291, 3-[4-[5-(7,8-dimethyl-[1,2,4]triazolo[1,5-a]pyridin-6-yl)-4-isopropyl-3-methyl-6H-thieno[2,3-b]pyrrol-2-yl]-1-piperidyl]pyrrolidin-2-one] has an EC50 (TLR7) of 0.6 nM and an EC50 (TLR8) of 22.2 nM.
For `Cc1c(-c2[nH]c3sc(C4CCC5(CC4)CNCCO5)c(C)c3c2C(C)C)cn2ncnc2c1C` (single isomer, unassigned) [Example 292, 9-(5-(7,8-dimethyl-[1,2,4]triazolo[1,5-a]pyridin-6-yl)-4-isopropyl-3-methyl-6H-thieno[2,3-b]pyrrol-2-yl)-1-oxa-4-azaspiro[5.5]undecane], the EC50 (TLR7) was 0.09 nM and the EC50 (TLR8) was 3.91 nM.
Work on `Cc1c(-c2[nH]c3sc(C4CCC5(CC4)CNCCO5)c(C)c3c2C(C)C)cn2ncnc2c1C` (single isomer, unassigned) [Example 293, 9-(5-(7,8-dimethyl-[1,2,4]triazolo[1,5-a]pyridin-6-yl)-4 isopropyl-3-methyl-6H-thieno[2,3-b]pyrrol-2-yl)-1-oxa-4-azaspiro[5.5]undecane] yielded an EC50 (TLR7) of 1.67 nM and an EC50 (TLR8) of 20.5 nM.
